Test results reported in paper PMC11211567, “Tetrandrine inhibits aldosterone synthesis by covalently targeting CYP11A1 to attenuate hypertension” (Frontiers in Pharmacology, 2024).

Biological target: T1, CYP11A1 (Homo sapiens, UniProt P05108)
T1 construct: recombinant WT human CYP11A1, pET-28a(+), C-terminal His6, coexpressed with GroEL/ES in E. coli, purified; MST
T1 sequence (P05108 40-521): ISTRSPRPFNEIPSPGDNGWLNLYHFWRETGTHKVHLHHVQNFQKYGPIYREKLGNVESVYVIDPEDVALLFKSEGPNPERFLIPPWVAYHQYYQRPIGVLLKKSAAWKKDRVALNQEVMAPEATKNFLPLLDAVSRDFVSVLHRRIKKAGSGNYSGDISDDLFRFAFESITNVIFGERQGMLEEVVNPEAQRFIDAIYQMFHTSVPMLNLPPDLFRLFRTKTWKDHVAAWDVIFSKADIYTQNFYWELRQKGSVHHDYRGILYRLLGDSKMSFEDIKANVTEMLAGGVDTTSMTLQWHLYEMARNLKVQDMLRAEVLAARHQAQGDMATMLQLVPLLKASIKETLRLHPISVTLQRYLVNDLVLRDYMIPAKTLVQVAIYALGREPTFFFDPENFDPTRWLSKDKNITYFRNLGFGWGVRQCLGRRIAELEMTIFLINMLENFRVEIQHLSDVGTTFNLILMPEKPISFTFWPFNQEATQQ
Assay: MST with purified protein; in-gel competition with Tet probe; CO difference spectra; cell activity IC50 […]
Type: binding

COc1ccc2cc1Oc1ccc(cc1)C[C@H]1c3cc(c(OC)cc3CCN1C)Oc1c(OC)c(OC)cc3c1[C@H](C2)N(C)CC3 [Tet, Tetrandrine]
Kd: 12.5 µM
